Measurements taken from ChEMBL document CHEMBL5465560, “Selectivity Literature for EUbOPEN Chemogenomic Library” (2024).
Each block holds one compound with its values, some of them ahead of it.

How the values were obtained:
[1] = molecular target: Mitogen-activated protein kinase 4 (Homo sapiens) (UniProt P31152); test: Selectivity interaction (KinomeScan (DiscoverX)) EUB0001619a MAPK4; conditions: at 1 µM
[2] = molecular target: Phosphatidylinositol 4,5-bisphosphate 3-kinase catalytic subunit gamma isoform (Homo sapiens) (UniProt P48736); test: Selectivity interaction (KinomeScan (DiscoverX)) EUB0001619a PIK3CG; conditions: at 1 µM
Aurora kinase B = Aurora kinase B (Homo sapiens, UniProt Q96GD4); test: Selectivity interaction (Kinase panel (DSF assay)) EUB0001558a AURKB
[3] = molecular target: Tyrosine-protein kinase Fgr (Homo sapiens) (UniProt P09769); test: Selectivity interaction (KinomeScan (DiscoverX)) EUB0000595a FGR; conditions: at 10 µM
[4] = molecular target: Protein kinase C delta type (Homo sapiens) (UniProt Q05655); test: Selectivity interaction (Upstate Kinase Profiler service (Millipore)) EUB0000056c PRKCD; conditions: at 1 µM
[5] = molecular target: Dual specificity protein kinase CLK3 (Homo sapiens, UniProt P49761); test: Selectivity interaction (Kinase panel (Invitrogen)) EUB0000639a CLK3; conditions: at 200 nM
[6] = molecular target: Epidermal growth factor receptor (Homo sapiens, UniProt P00533); test: Selectivity interaction (Kinase panel (Invitrogen)) EUB0000639a EGFR; conditions: at 200 nM
[7] = molecular target: eIF-2-alpha kinase GCN2 (Homo sapiens) (UniProt Q9P2K8); test: Selectivity interaction (ActivX KiNativ screen (kinase selectivity in THP-1 cell lysates)) EUB0000639a EIF2AK4; format: subcellular; conditions: lysate
[8] = molecular target: T1, Mitogen-activated protein kinase kinase kinase 2 (Homo sapiens) (UniProt Q9Y2U5); test: Selectivity interaction (ActivX KiNativ screen (kinase selectivity in THP-1 cell lysates)) EUB0000639a MAP3K2; format: subcellular; conditions: lysate
T1 sequence (whole entry): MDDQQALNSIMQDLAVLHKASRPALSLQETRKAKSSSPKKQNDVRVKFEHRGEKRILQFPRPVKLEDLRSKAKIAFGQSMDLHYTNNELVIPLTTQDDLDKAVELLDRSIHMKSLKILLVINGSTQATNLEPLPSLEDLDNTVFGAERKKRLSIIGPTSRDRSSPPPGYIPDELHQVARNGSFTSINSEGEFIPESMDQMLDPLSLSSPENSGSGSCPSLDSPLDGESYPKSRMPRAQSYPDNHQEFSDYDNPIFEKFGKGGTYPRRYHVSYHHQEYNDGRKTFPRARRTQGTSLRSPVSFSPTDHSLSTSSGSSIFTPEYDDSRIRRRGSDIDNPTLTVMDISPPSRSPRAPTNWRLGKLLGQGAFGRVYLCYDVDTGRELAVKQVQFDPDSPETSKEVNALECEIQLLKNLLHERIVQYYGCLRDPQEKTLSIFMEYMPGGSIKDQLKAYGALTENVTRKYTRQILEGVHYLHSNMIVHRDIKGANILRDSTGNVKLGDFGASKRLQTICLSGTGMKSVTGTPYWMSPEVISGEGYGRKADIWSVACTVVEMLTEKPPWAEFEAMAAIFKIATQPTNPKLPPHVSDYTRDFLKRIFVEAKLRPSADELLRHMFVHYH

[9] = molecular target: Phosphatidylinositol 4-phosphate 5-kinase type-1 gamma (Homo sapiens) (UniProt O60331); test: Selectivity interaction (KinomeScan (DiscoverX)) EUB0000229b PIP5K1C; conditions: at 10 µM
[10] = molecular target: Serine/threonine-protein kinase Nek7 (Homo sapiens) (UniProt Q8TDX7); test: Selectivity interaction (ProQinase) EUB0000171b NEK7
[11] = molecular target: Activin receptor type-1-like (Homo sapiens) (UniProt P37023); test: Selectivity interaction (KinomeScan (DiscoverX)) EUB0001049a ACVRL1; conditions: at 1 µM
[12] = molecular target: T2, Serine/threonine-protein kinase TBK1 (Homo sapiens) (UniProt Q9UHD2); test: Selectivity interaction (KinomeScan (DiscoverX)) EUB0000092b TBK1; conditions: at 10 µM
T2 sequence (whole entry): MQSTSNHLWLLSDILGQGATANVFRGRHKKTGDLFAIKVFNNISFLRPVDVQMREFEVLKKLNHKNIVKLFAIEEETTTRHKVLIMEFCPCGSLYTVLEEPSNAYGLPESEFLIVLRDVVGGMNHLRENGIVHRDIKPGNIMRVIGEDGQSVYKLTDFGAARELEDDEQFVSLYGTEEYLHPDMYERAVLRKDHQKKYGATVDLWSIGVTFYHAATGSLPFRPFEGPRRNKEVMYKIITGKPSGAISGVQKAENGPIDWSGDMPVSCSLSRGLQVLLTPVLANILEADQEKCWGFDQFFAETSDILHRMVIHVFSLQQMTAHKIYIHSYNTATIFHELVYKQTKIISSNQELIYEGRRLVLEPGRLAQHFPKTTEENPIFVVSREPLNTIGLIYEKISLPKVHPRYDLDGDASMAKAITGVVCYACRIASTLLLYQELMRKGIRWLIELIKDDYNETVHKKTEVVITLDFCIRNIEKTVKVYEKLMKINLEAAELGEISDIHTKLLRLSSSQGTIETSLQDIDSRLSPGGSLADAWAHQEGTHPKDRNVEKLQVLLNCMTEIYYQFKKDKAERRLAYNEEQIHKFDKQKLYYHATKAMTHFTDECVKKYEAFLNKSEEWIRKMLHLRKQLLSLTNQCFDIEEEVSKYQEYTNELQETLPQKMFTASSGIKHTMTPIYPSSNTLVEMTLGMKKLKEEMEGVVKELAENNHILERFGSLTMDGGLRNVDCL

[13] = molecular target: Casein kinase I isoform alpha (Homo sapiens, UniProt P48729); test: Selectivity interaction (Kinase panel (Z-LYTE Assay)) EUB0001632a CSNK1A1; conditions: at 10 µM
Casein kinase I isoform alpha, sequence (P48729 2-337 limits assumed): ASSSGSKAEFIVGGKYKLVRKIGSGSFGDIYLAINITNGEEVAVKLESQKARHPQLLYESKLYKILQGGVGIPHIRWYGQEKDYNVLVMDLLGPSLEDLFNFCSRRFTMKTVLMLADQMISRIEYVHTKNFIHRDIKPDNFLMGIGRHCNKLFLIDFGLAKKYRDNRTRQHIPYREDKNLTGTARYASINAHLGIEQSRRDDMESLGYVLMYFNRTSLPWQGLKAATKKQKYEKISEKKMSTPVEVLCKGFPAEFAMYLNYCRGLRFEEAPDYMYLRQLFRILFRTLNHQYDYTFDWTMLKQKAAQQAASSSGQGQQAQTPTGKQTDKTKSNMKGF

eIF-2-alpha kinase GCN2 (Homo sapiens), sequence (Q9P2K8 whole entry): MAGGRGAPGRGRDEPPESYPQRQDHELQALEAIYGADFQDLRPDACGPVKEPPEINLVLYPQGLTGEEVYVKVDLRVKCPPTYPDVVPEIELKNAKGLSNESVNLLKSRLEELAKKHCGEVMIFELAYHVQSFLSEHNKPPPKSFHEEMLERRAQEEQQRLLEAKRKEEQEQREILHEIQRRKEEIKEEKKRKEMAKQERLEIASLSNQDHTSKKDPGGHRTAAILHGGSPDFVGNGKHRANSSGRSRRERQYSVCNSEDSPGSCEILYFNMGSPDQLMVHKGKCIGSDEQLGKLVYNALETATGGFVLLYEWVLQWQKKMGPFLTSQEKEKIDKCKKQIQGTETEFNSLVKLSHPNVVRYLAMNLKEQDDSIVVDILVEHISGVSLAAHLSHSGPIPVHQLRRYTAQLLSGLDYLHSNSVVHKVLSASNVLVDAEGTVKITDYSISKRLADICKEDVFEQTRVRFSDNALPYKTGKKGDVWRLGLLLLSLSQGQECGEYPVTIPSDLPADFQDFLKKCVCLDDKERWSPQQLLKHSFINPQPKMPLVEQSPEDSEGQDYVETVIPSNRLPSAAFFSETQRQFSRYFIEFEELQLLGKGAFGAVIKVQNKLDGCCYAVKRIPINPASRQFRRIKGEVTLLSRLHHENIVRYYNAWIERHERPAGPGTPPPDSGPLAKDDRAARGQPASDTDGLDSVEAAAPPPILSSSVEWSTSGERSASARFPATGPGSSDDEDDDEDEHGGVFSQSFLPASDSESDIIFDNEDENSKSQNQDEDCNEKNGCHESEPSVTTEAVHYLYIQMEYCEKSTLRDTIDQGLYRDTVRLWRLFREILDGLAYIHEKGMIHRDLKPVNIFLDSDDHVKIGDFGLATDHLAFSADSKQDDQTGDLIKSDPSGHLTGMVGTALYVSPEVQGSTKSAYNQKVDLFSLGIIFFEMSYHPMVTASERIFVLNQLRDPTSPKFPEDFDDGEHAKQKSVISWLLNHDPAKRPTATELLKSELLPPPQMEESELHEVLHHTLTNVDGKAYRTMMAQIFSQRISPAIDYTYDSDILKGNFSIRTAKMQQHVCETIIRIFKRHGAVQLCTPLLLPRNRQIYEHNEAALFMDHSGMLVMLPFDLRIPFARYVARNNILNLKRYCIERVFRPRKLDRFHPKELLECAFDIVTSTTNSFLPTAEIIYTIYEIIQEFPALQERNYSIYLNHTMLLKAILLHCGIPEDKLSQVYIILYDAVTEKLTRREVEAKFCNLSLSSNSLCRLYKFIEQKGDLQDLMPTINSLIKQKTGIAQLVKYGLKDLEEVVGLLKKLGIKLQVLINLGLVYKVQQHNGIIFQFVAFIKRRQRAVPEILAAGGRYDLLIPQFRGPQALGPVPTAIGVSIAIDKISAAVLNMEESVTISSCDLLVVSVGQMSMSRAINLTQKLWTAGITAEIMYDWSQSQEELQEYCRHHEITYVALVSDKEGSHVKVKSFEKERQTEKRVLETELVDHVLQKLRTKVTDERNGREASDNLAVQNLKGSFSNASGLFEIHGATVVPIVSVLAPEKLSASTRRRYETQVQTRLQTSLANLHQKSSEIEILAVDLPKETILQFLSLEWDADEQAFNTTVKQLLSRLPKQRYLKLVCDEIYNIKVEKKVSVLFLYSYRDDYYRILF
Serine/threonine-protein kinase Nek7 (Homo sapiens), sequence (Q8TDX7 whole entry, looked up): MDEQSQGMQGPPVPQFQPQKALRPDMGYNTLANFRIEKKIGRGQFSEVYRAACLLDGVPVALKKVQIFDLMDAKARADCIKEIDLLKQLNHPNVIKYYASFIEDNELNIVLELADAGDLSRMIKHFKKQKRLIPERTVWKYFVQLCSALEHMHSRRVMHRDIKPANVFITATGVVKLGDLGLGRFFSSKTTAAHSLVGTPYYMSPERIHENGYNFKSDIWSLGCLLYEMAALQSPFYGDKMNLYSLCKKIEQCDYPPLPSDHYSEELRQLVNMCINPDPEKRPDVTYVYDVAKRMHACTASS
Mitogen-activated protein kinase 4 (Homo sapiens), sequence (P31152 whole entry, canonical isoform): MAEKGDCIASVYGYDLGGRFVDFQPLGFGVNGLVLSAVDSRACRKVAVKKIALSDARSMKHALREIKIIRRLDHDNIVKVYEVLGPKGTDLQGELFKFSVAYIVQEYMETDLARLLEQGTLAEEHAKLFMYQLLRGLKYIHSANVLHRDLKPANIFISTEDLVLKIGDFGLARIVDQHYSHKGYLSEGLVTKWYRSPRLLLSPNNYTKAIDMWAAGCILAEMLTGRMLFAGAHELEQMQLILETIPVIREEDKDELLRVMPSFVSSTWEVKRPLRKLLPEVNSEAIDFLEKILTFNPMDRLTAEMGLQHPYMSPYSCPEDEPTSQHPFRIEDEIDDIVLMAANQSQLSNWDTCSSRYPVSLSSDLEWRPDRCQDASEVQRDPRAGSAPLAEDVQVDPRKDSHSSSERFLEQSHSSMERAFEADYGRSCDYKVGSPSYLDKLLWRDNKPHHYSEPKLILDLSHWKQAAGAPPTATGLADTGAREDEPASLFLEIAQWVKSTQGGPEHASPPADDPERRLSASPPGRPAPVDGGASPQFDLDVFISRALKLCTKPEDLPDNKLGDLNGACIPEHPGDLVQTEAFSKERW
Phosphatidylinositol 4,5-bisphosphate 3-kinase catalytic subunit gamma isoform (Homo sapiens), sequence (P48736 whole entry, looked up, canonical isoform): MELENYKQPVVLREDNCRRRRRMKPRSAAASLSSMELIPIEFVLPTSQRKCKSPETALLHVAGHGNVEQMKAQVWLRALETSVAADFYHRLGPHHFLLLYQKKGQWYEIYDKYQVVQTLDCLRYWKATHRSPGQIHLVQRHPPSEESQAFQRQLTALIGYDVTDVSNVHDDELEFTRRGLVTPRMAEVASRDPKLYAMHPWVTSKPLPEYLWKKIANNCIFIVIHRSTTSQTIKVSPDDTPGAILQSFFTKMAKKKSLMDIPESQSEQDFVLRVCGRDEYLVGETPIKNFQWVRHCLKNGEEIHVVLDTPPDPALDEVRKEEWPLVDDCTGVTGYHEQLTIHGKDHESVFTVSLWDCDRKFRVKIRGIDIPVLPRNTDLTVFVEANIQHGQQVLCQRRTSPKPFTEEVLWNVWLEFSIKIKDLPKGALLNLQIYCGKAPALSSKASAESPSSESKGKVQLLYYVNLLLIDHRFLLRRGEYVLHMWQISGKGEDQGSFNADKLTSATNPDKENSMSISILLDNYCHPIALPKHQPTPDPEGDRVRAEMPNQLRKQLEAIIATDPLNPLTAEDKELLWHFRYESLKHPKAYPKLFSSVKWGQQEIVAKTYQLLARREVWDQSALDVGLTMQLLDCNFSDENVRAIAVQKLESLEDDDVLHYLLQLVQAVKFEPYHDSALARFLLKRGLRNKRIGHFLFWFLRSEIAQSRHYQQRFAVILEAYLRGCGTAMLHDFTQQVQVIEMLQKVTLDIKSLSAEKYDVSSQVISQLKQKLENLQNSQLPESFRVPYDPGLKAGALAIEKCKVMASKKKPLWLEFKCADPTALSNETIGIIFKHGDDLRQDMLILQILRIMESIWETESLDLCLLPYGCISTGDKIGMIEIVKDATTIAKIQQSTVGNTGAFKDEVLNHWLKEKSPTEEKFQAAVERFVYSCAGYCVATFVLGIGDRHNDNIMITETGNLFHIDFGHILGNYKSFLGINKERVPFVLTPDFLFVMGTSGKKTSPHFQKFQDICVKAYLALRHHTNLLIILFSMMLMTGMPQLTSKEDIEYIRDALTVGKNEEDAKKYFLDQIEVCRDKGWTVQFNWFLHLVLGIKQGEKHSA
Protein kinase C delta type (Homo sapiens), sequence (Q05655 whole entry, looked up): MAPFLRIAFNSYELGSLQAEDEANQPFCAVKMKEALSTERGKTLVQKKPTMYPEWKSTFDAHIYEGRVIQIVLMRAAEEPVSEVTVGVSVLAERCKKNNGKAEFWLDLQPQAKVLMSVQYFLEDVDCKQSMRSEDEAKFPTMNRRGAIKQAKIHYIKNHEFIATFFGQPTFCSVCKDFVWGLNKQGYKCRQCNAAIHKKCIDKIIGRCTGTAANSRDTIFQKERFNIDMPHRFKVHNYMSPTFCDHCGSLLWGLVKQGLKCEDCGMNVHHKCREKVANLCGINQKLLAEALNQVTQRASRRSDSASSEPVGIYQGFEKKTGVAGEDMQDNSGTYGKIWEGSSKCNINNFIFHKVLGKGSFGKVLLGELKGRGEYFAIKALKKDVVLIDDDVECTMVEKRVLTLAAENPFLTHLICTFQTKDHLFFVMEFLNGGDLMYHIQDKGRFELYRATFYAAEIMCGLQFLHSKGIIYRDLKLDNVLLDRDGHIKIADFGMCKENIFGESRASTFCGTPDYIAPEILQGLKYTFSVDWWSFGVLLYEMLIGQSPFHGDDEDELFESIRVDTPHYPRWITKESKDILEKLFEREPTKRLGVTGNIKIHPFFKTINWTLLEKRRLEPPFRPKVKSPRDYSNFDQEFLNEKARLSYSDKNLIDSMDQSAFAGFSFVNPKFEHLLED
Aurora kinase B, sequence (Q96GD4 whole entry): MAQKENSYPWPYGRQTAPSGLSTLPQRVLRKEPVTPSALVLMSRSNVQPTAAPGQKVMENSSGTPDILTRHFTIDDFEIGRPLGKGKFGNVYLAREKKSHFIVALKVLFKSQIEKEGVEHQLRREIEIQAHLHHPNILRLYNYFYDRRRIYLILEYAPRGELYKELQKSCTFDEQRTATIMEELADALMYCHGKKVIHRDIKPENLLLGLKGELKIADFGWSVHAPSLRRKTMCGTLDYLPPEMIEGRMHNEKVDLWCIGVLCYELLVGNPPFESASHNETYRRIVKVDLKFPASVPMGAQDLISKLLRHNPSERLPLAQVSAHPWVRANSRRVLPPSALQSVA

SMILES: N#Cc1cccc(-c2c[nH]c3ncnc(N4CCOCC4)c23)c1
% of control [1]: 95%
% of control [2]: 79%

SMILES: CC(C)(O)[C@H](F)CN1Cc2cc(NC(=O)c3cnn4cccnc34)c(N3CCOCC3)cc2C1=O
dTM (Aurora kinase B): 0.5 K

SMILES: COCC(=O)NC/C=C/c1ccc2ncnc(Nc3ccc(Oc4ccc(C)nc4)c(C)c3)c2c1 [CP-724714]
% of control [3]: 89%

% of inhibition [4]: 33%
SMILES: Cc1ccc(-c2ccc3c(ccc4sc5c(c43)NC[C@@H](C)NC5=O)n2)cn1

% of inhibition [5]: 8.76%
% of inhibition [6]: 1.86%
% of inhibition ([7]; at 0.01 µM): -4.6%
% of inhibition ([7]; at 0.04 µM): -11.3%
% of inhibition ([7]; at 0.2 µM): -14.4%
% of inhibition ([7]; at 1 µM): 13.9%
% of inhibition ([7]; at 5 µM): 12.4%
% of inhibition ([8]; at 0.01 µM): -0.4%
% of inhibition ([8]; at 0.04 µM): -0.5%
% of inhibition ([8]; at 0.2 µM): -5.2%
% of inhibition ([8]; at 1 µM): 3%
% of inhibition ([8]; at 5 µM): 6.3%
SMILES: CC[C@@H]1[C@H](F)C(=O)N[C@@H]1COc1nccc2cc(C(N)=O)c(OC)cc12 [ZIMLOVISERTIB]

SMILES: COc1cc(N(C)c2ccnc3ccc(C(F)(F)F)cc23)cc(OC)c1OC
% binding [9]: 53%

% of control ([10]; at 1 µM): 91%
% of control ([10]; at 5 µM): 95%
SMILES: C=CC(=O)Nc1cccc(C(=O)Nc2ccc(Nc3cc(-c4[nH]c(SC)nc4C)ccn3)cc2)c1

SMILES: COc1cc(Nc2nc(C)cc(-c3cnn4nc(OC)ccc34)n2)cc(C(F)(F)F)c1
% of control [11]: 89%

SMILES: CCC(=O)N1CCN(c2ccc(-n3c(=O)ccc4cnc5ccc(-c6cnc7ccccc7c6)cc5c43)cc2C(F)(F)F)CC1
% of control [12]: 93%

% of control [13]: 4.57%
SMILES: Cn1cc(-n2cnc3c(NCc4nc5cc(Cl)c(Cl)cc5[nH]4)nc(N4CCOCC4)nc32)cn1
